We go through 13 compounds from patent US20230055237A1, “COMPOUNDS AND METHODS FOR THE TREATMENT OF CYSTIC FIBROSIS” (Flatley Discovery Lab, LLC, priority 2019, published 2023).

The structures appear in SMILES notation.

The assay concerns the target T1, CFTR (Homo sapiens, UniProt P13569, DEL508-508).
T1 construct: Primary CF airway epithelial cells were obtained from the UNC Cystic Fibrosis Tissue Procurement and Cell Culture Core; host or cells: primary CF airway epithelial cells, differentiated at the air-liquid interface
The experiment in a line: Equivalent current assay in primary CF airway epithelial cells (NAUC, combination with 1st site corrector FDL169 or VX-809). The assay is classed as cell-based. The following applies: 37° C., 24 h; for Nauc @ 10 μM: test compound 10 μM in combination with 1st site corrector VX-809 (3 μM). As to the method:
Primary CF airway epithelial cells were obtained from the UNC Cystic Fibrosis Tissue Procurement and Cell Culture Core. The cells are grown at 37° C. in a Heracell 150i incubator using growth media (BEGM, Fischer). […] Two days before the Ussing assay the mucus on the apical surface of the cells was aspirated after incubating with 200 μL of differentiation media for at least thirty (30) minutes. One day before the Ussing assay test compounds were added to the basolateral surface of the cells at various test concentrations dissolved in DMSO. Duplicate wells were prepared giving a n=3 or n=4 protocol.
Cells were treated for 24 hours with various combinations and concentrations of the test articles, reference standard (3 μM VX809 or 3 μM FDL169, positive control). Compounds stock solutions were prepared in DMSO and diluted 1/1000 into ALI media to their final assay concentration. Cells were treated with combination solutions (2 mL of each dilution) and incubated at 37° C. for 24 h.
For the equivalent current assay, cells on four Transwell (24-well) plates were treated. Each Transwell plate was filled with 200 μl of HBS on the apical surface and 2 ml on the basolateral surface. Plates were placed horizontally in a heated mount at 37° C., and equilibrated for several minutes. Resting current was measured for 15 min and then blocked by the apical addition of 5 μM benzamil. After 20 min, 10 μM forskolin and 1 μM VX770 were added to both the apical and basolateral side to stimulate CFTR. An increase in chloride current is seen as an upward deflection of the trace.
The raw data, current vs. time for the Ussing chamber (sampling interval: 10 s) and voltage vs. time and resistance vs. time for the equivalent current assay (sampling interval: 5 minutes) were transferred to Excel (Microsoft Office Professional, version 14.0.7106.5003) for analysis. […] This average is equivalent to the sum of the average forskolin activated and the average VX770-potentiated currents. The average current measured in vehicle (0.1% DMSO) treated cells, Iv, was subtracted from the current for the test article, ITA, or from the corrector reference standard VX809 (3 uM ISTD). For replicate measurements, the average vehicle subtracted response for the test article, was normalized to the average vehicle subtracted inhibitor response of the reference corrector VX809 (3 μM).
A second endpoint, for the equivalent current assay, evaluated was NAUC, the normalized area under the curve (AUC) measuring the response after addition of forskolin and VX770 to the time point right before the addition of the CFTR inhibitor. The AUC is effectively the average response multiplied by the duration of the response.
NAUCTA=[AUCTA−AUCV,ave]/[AUCVx809r,ave−AUCV,ave] (Equation 2).
Experiments were run with a minimum of n=4 replicates per concentration. Since the distribution for the ratio of two normal distributions is a Cauchy distribution, the median value must be used for the average and the average deviation must be used for the error of all normalized data.
E=Emin+(Emax−Emin)/(1+10^((LogEC5OS)*nH)) (Equation 3)

The mark [1] stands for this setting: test compound 1 μM in combination with 1st site corrector VX-809 (3 μM).
The mark [2] stands for this setting: test compound 3 μM in combination with 1st site corrector VX-809 (3 μM).
Setting [3] is: test compound 1 μM in combination with 1st site corrector FDL169 (3 μM).
Setting [4] is: test compound 3 μM in combination with 1st site corrector FDL169 (3 μM).

T1 sequence (P13569 with tags, fused parts or gaps DEL508-508): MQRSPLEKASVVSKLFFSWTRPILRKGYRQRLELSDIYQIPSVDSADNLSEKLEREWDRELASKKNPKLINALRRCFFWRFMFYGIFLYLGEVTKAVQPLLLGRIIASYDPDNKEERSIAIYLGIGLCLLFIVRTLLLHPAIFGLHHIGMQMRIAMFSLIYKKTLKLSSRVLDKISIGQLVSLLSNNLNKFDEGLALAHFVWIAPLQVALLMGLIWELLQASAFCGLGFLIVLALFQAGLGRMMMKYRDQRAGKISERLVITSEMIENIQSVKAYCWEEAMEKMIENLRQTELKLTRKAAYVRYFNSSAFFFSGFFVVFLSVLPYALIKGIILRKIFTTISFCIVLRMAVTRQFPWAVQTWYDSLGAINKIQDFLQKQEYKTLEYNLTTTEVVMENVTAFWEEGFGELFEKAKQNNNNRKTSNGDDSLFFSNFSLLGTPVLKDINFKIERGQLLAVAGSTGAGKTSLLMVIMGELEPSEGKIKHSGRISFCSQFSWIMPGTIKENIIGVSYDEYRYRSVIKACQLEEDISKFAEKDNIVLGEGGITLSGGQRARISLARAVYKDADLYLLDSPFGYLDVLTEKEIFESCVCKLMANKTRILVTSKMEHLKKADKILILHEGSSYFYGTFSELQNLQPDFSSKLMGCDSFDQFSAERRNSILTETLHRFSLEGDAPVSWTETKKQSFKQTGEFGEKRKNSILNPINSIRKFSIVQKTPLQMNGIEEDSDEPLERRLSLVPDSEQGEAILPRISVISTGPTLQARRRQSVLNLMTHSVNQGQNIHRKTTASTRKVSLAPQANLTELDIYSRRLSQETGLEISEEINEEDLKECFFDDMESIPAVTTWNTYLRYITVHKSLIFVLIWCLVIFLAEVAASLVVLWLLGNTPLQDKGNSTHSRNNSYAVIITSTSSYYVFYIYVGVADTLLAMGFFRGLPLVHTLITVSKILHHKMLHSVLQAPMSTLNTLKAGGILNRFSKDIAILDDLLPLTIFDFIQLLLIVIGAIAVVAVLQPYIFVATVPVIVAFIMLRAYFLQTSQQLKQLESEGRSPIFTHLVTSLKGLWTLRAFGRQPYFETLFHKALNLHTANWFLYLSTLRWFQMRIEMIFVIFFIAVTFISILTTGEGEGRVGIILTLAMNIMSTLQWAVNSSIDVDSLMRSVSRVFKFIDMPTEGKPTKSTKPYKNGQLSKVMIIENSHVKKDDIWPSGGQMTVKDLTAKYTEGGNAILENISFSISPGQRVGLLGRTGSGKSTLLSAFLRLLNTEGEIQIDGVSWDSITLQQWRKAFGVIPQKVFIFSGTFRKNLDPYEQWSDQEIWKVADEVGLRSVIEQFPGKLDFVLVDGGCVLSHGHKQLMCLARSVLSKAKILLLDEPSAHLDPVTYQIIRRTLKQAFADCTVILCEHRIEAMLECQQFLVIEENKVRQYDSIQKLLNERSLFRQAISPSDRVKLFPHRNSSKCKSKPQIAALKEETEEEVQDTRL

For `CN(C(=O)[C@H]1[C@H]2CC(F)(F)CN2[C@]2(C(=O)Nc3c(Cl)cc(Cl)cc32)[C@H]1C(=O)NS(C)(=O)=O)c1cc(Cl)cc(Cl)c1` (relative stereo) [Example 231, rel-(1′R,2′S,3R,7a′R)-5,7-dichloro-N1′-(3,5-dichlorophenyl)-6′,6′-difluoro-N1′-methyl-N2′-(methylsulfonyl)-2-oxo-1′,2′,5′,6′,7′,7a′-hexahydrospiro[indoline-3,3′-pyrrolizine]-1′,2′-dicarboxamide], the “Nauc @ 10 μM” value is “+ (NAUC “+” refers to an observed NAUC <140% of positive control)”. For `O=C(Nc1cc(Cl)cc(Cl)c1)[C@H]1[C@H]2CCCN2[C@]2(C(=O)Nc3c(Cl)cc(Cl)cc32)[C@H]1C(=O)NN1CCOCC1` (relative stereo) [Example 243, (1′R,2′S,7a′R)-5,7-dichloro-N1′-(3,5-dichlorophenyl)-N2′-morpholino-2-oxo-1′,2′,5′,6′,7′,7a′-hexahydrospiro dicarboxamide], the “Nauc @ 1 μM” value under setting [1] is recorded as “+ (NAUC “+” refers to an observed NAUC <140% of positive control)”. Further, under setting [2], the “Nauc @ 3 μM” value was “+ (NAUC “+” refers to an observed NAUC <140% of positive control)”. Take `O=C(Nc1cncc(C(F)(F)F)n1)C1C2C[C@@](O)(C(F)(F)F)CN2C2(C(=O)Nc3c(Cl)cc(Cl)cc32)C1C(=O)O` (single isomer, unassigned) [Example 75.a]: the “Nauc @ 10 μM” value is reported as “+ (NAUC “+” refers to an observed NAUC <140% of positive control)”. Take `COc1cc(C(F)(F)F)cc(NC(=O)C2C3CC(F)(F)CN3C3(C(=O)Nc4c(Cl)cc(Cl)cc43)C2C(=O)O)n1` (single isomer, unassigned) [Example 80.7a.1, 5,7-dichloro-6′,6′-difluoro-1′-((6-methoxy-4-(trifluoromethyl)pyridin-2-yl)carbamoyl)-2-oxo-1′,2′,5′,6′,7′,7a′-hexahydrospiro[indoline-3,3′-pyrrolizine]-2′-carboxylic acid]: the “Nauc @ 10 μM” value is given as “+ (NAUC “+” refers to an observed NAUC <140% of positive control)”.

For `COc1cc(C(F)(F)F)cc(NC(=O)C2C3CC(F)(F)CN3C3(C(=O)Nc4c(Cl)cc(Cl)cc43)C2C(=O)O)n1` (single isomer, unassigned) [Example 80.7a.2, 5,7-dichloro-6′,6′-difluoro-1′-((6-methoxy-4-(trifluoromethyl)pyridin-2-yl)carbamoyl)-2-oxo-1′,2′,5′,6′,7′,7a′-hexahydrospiro[indoline-3,3′-pyrrolizine]-2′-carboxylic acid], the “Nauc @ 10 μM” value is listed as “+++ (NAUC “+++” refers to an observed NAUC>170% of positive control)”. The “Nauc @ 1 μM” value under setting [1] is listed as “+ (NAUC “+” refers to an observed NAUC <140% of positive control)”. Moreover, the “Nauc @ 3 μM” value under setting [2] was “+++ (NAUC “+++” refers to an observed NAUC>170% of positive control)”. Turning to `COc1cc(C(F)(F)F)cc(NC(=O)C2C3CC(F)(F)CN3C3(C(=O)Nc4c(Cl)cc(Cl)cc43)C2C(=O)O)n1` (single isomer, unassigned) [Example 80.7b.1, 5,7-dichloro-6′,6′-difluoro-1′-((6-methoxy-4-(trifluoromethyl)pyridin-2-yl)carbamoyl)-2-oxo-1′,2′,5′,6′,7′,7a′-hexahydrospiro[indoline-3,3′-pyrrolizine]-2′-carboxylic acid], the “Nauc @ 10 μM” value is reported as “+ (NAUC “+” refers to an observed NAUC <140% of positive control)”.

In the case of `COc1cc(C(F)(F)F)cc(NC(=O)C2C3CC(F)(F)CN3C3(C(=O)Nc4c(Cl)cc(Cl)cc43)C2C(=O)O)n1` (single isomer, unassigned) [Example 80.7b.2, 5,7-dichloro-6′,6′-difluoro-1′-((6-methoxy-4-(trifluoromethyl)pyridin-2-yl)carbamoyl)-2-oxo-1′,2′,5′,6′,7′,7a′-hexahydrospiro[indoline-3,3′-pyrrolizine]-2′-carboxylic acid], the “Nauc @ 10 μM” value is on record as “+ (NAUC “+” refers to an observed NAUC <140% of positive control)”. On to `O=C1C2C(C(F)(F)F)NC3(C(=O)Nc4c(Cl)cc(Cl)cc43)C2C(=O)N1c1cc(Cl)cc(Cl)c1` (single isomer, unassigned) [Example 81, 5,7-dichloro-4′4(3,5-dichlorophenyl)carbamoyl)-1-methyl-2-oxo-5′-(trifluoromethyl)spiro[indoline-3,2′-pyrrolidinel-3′-carboxylic acid], for which the “Nauc @ 10 μM” value is reported as “+ (NAUC “+” refers to an observed NAUC <140% of positive control)”. Under setting [1], the “Nauc @ 1 μM” value is “+ (NAUC “+” refers to an observed NAUC <140% of positive control)”. Besides, under setting [2], the “Nauc @ 3 μM” value is given as “++ (NAUC “++” refers to an observed NAUC 170-140% of positive control)”. In the case of `CC(C)(C)CN(C(=O)[C@H]1[C@@H](C(=O)O)C2(C(=O)Nc3c(Cl)cc(Cl)cc32)N2CCC[C@@H]12)c1cc(Cl)cc(Cl)c1` (single isomer, unassigned) [Example 82.6a, (1′R,2′S,7a′R)-5,7-dichloro-1-((3,5-dichlorophenyl)(neopentyl)carbamoyl)-2-oxo-1′,2′,5′,6′,7′,7a′-hexahydrospiro[indoline-3,3′-pyrrolizine]-2′-carboxylic acid], under setting [3], the “Nauc @ 1 μM” value was “+++ (NAUC “+++” refers to an observed NAUC>170% of positive control)”. In addition, the “Nauc @ 3 μM” value under setting [4] is “++ (NAUC “++” refers to an observed NAUC 170-140% of positive control)”.

`CC(C)(C)CN(C(=O)[C@H]1[C@H]2CCCN2C2(C(=O)Nc3c(Cl)cc(Cl)cc32)[C@H]1C(=O)O)c1cc(Cl)cc(Cl)c1` (single isomer, unassigned) [Example 82.6b, (1′S,2′R,7a′S)-5,7-dichloro-1-((3,5-dichlorophenyl)(neopentyl)carbamoyl)-2-oxo-1′,2′,5′,6′,7′,7a′-hexahydrospiro[indoline-3,3′-pyrrolizine]-2′-carboxylic acid]: under setting [3], the “Nauc @ 1 μM” value is listed as “++ (NAUC “++” refers to an observed NAUC 170-140% of positive control)”. Besides, the “Nauc @ 3 μM” value under setting [4] is “+ (NAUC “+” refers to an observed NAUC <140% of positive control)”. Take `O=C(O)[C@H]1[C@@H](C(=O)N(CC2CC2)c2cc(Cl)cc(Cl)c2)[C@H]2CCCN2C12C(=O)Nc1c(Cl)cc(Cl)cc12` (single isomer, unassigned) [Example 83b]: under setting [3], the “Nauc @ 1 μM” value is on record as “+++ (NAUC “+++” refers to an observed NAUC>170% of positive control)”. The “Nauc @ 3 μM” value under setting [4] was “+++ (NAUC “+++” refers to an observed NAUC>170% of positive control)”. For `O=C(O)[C@H]1[C@@H](C(=O)N(CC2CCCC2)c2cc(Cl)cc(Cl)c2)[C@H]2CCCN2C12C(=O)Nc1c(Cl)cc(Cl)cc12` (single isomer, unassigned) [Example 84b], the “Nauc @ 1 μM” value under setting [3] is recorded as “+++ (NAUC “+++” refers to an observed NAUC>170% of positive control)”. The “Nauc @ 3 μM” value under setting [4] is recorded as “+ (NAUC “+” refers to an observed NAUC <140% of positive control)”. Take `CN(O)C(=O)C1C(C(=O)Nc2cc(Cl)cc(Cl)c2)C2CC(F)(F)CN2C12C(=O)Nc1c(Cl)cc(Cl)cc12` (single isomer, unassigned) [Example 225a, 5,7-dichloro-N1′-(3,5-dichlorophenyl)-6′,6′-difluoro-N2′-hydroxy-N2′-methyl-2-oxo-1′,2′,5′,6′,7′,7a′-hexahydrospiro[indoline-3,3′-pyrrolizine]-1′,2′-dicarboxamide]: the “Nauc @ 10 μM” value is “+++ (NAUC “+++” refers to an observed NAUC>170% of positive control)”. Also, under setting [1], the “Nauc @ 1 μM” value is “+ (NAUC “+” refers to an observed NAUC <140% of positive control)”. Also, the “Nauc @ 3 μM” value under setting [2] is “+ (NAUC “+” refers to an observed NAUC <140% of positive control)”.
